Measurements published in patent US5045546A, “8-azabicyclo[3.2.1]octylalkylthiazolidines” (Hoechst-Roussel Pharmaceuticals Inc., priority 1990, dated 1991).
Where two headings read alike, the source gives them in different places.

Columns and labels:
[1] = tested on: apomorphine-induced climbing; test: inhibition of apomorphine-induced climbing in mice (climbing mice assay, antipsychotic activity); type: in vivo, CK-1 male mice; conditions: Mus musculus, ip, 0.5 h, read-out: Antipsychotic Activity ED50
Description: The 8-azabicyclo[3.2.1]octylalkylthiazolidnones of the present invention are useful for treating psychoses by virtue of their ability to block apomorphine-induced climbing in mammals.
Antipsychotic activity is determined in the climbing mice assay by a method similar to those described by P. Protais et al., Psychopharmacol., 50,1 (1976) and B. Costall, Eur. J. Pharmacol., 50, 39 (1978).
The subject CK-1 male mice (23-27 grams) are group-housed under standard laboratory conditions. The mice are individually placed in wire mesh stick cages (4"×4"×10") and are allowed one hour for adaptation and exploration of the new environment. Then apomorphine is injected subcutaneously at 1.5 mg/kg, a dose causing climbing in all subjects for 30 minutes. Compounds to be tested for antipsychotic activity are injected intraperitoneally 30 minutes prior to the apomorphine challenge at a screening dose of 10 mg/kg.
For evaluation of climbing, 3 readings are taken at 10, 20 and 30 minutes after apomorphine administration according to the following scale:
4 paws on bottom (no climbing)
2 paws on the wall (rearing)
4 paws on the wall (full climb)
Mice consistently climbing before the injection of apomorphine will be discarded.
With full-developed apomorphine climbing, the animals are hanging onto the cage walls, rather motionless, over longer periods of time. By contrast, climbs due to mere motor stimulation usually only last a few seconds.
The climbing scores are individually totaled (maximal score; 6 per mouse over 3 readings) and the total score of the control group (vehicle intraperitioneally-apomorphine subcutaneously) is set to 100%. ED50 values with 95% confidence limits are calculated by a Linear Regression Analysis. Antipsychotic activity expressed as the ED50 value of representative 8-azabicyclo[3.2.1]octylalkylthiazolidinones as well as two standard antipsychotics are presented in Table I.

[2] = tested on: apomorphine induced stereotypy; test: inhibition of apomorphine stereotypy assay (potential for extrapyramidal side effects); type: in vivo, male Wistar rats; conditions: rats, drug one hour prior to scoring, apomorphine 1.5 mg/kg s.c.
Description: Potential for undersirable extrapyramidal side effect activity is determined in the inhibition of apomorphine stereotypy assay by a method similar to those described by N. E. Anden, et al., J. Pharma. Pharmacol., 19, 627, (1967), and A. M. Ernst, et al., Psychopharmacologia (Berl.), 10, 316 (1967).
In this assay, groups of male Wistar rats (125-200 grams) are used and food and water are available ad libitum. Drugs are prepared using distilled water and, if insoluble, a suitable surfactant is added. The route of administration may be varied and the dosage volume is 10 ml/kg. For a primary screen, a group size of six is used. Drug is administered one hour prior to scoring and the animals are placed in individual clear plastic cages (24×14×13 cm). The control group receives vehicle. Apomorphine hydrochloride solution is prepared at a concentration of 15 mg/10 ml in a 0.03% ascorbic acid stock solution (30 mg of ascorbic acid in 100 ml of 1% saline) to increase the stability of the apomorphine hydrochloride while in solution. Apomorphine hydrochloride solution is administered at a dose of 1.5 mg/kg subcutaneous (s.c.) with a dosage volume of 1 ml/kg. Fifty minutes after drug dosing, stereotypic behavior is noted. Stereotypic activity is defined as sniffing, licking or chewing behavior that occurs in a repetitive manner and is rated as follows: Constant sniffing, licking or chewing without interruption; the animal is considered protected if this behavior is interrupted.
The percent effectiveness of a drug is determined by the number of animals protected in each group. Antipsychotics displaying little effect in this assay would be expected to show a low propensity to cause undersirable extrapyramidal side effects and/or tardive dyskinesias in mammals (N. C. Moore and S. Gershon, Clinical Neuropharmacology, 12, 167, (1989).
A dose-response is run in the same manner as a primary screen except that a group size of 10 is used and the animals are dosed in a randomized manner. One group receives vehicle. ED50 for stereotypy are calculated by means of probit analysis.
Inhibition of apomorphine induced stereotypy of respresentative 8-azabicyclo[3.2.1]octylalkylthiazolidinones of the present invention and two standards is given in Table II.

Compound: CC1(C)SCN(CCCCN2C3CCC2CC(OC(c2ccccc2)c2ccccc2)C3)C1=O.Cl (centres unmarked) [3-[4-[3-(diphenylmethoxy)-8-azabicyclo[3.2.1]octan-8-yl]-butyl]-5,5-dimethyl-4-thiazolidinone hydrochloride]
- ED50 [1]: 7.73 mg/kg
- % Inhibition of apomorphine induced stereotypy ([2]; dose 40 mg/kg body wt.): 17%

Compound: CSc1ccc2c(c1)N(CCC1CCCCN1C)c1ccccc1S2 (centres unmarked) [thioridazine]
- ED50 ([1]; climbing mice assay, compound intraperitoneal 30 minutes prior to apomorphine 1.5 mg/kg s.c., Linear Regression Analysis): 4.1 mg/kg
- % Inhibition of apomorphine induced stereotypy ([2]; dose 16 mg/kg body wt.): 50%

Compound: CC1SCN(CCCCN2C3CCC2CC(OC(c2ccccc2)c2ccccc2)C3)C1=O.Cl (centres unmarked) [3-[4-[3-(diphenylmethoxy)-8-azabicyclo[3.2.1]octan-8-yl]-butyl]-5-methyl-4-thiazolidinone hydrochloride]
- ED50 [1]: 12.1 mg/kg
- % Inhibition of apomorphine induced stereotypy ([2]; dose 20 mg/kg body wt.): 0%

Compound: O=C(CCCN1CCC(O)(c2ccc(Cl)cc2)CC1)c1ccc(F)cc1 [haloperidol]
- ED50 [1]: 0.16 mg/kg
- % Inhibition of apomorphine induced stereotypy ([2]; dose 0.2 mg/kg body wt.): 50%
